Test results as given in publication PMC10821064, “Mode of Antibacterial Action of Tomatidine C3-Diastereoisomers” (Molecules, 2024).

Target: T1, ATP synthase subunit c (Escherichia coli, UniProt P68699)
T1 construct: gene atpE; native ATP synthase in membrane vesicles of E. coli ATCC 25922; with whole ATP synthase complex
Assay: inhibition of NADH-driven ATP synthesis in E. coli membrane vesicles, luminescence (ATPlite), Dixon-type Ki
Assay type: biochemical
Conditions: read-out: Ki (μM) In Vitro

T1 sequence (P68699 whole entry): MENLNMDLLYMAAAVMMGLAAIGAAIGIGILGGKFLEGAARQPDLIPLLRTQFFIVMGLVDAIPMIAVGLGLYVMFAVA

SMILES | Ki [µM]
C[C@H]1CCC2(NC1)O[C@H]1C[C@H]3[C@@H]4CCC5C[C@@H](NCCN)CC[C@]5(C)[C@H]4CC[C@]3(C)[C@H]1[C@@H]2C (some centres unmarked) [TM-02] | 1.1
C[C@H]1CCC2(NC1)O[C@H]1C[C@H]3[C@@H]4CCC5C[C@H](NCCN)CC[C@]5(C)[C@H]4CC[C@]3(C)[C@H]1[C@@H]2C (some centres unmarked) [TM-03] | 3.5
